Reference: paper PMC4850295, “Using a Genetically Encoded Sensor to Identify Inhibitors of Toxoplasma gondii Ca^2+ Signaling” (The Journal of Biological Chemistry, 2016)
“And” between values parts separate entries of the source, which are not always exact repeats. Equal entries are not always repeated.

These compounds were tested on T1, GCaMP5-expressing T. gondii. Settings: 100 uM zaprinast stimulation, 10 min pretreatment, mean of two replicates, 0.23 h, 10 µM.
T1 construct: whole extracellular parasites expressing GCaMP5 Ca2+ sensor
Set-up: species or system GCaMP5-expressing Toxoplasma gondii, extracellular; GCaMP5 fluorescence (cytosolic Ca2+) after 100 uM zaprinast in compound-pretreated extracellular parasites, background-subtracted, relative to zaprinast alone
In short: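 Extracellular GCaMP5-expressing parasites in Ringer's solution were pretreated with compounds (single 10 μM dose, two biological replicates) for 10 min, then stimulated with 100 μM zaprinast at 37 °C for 4 min. Fluorescence read at 485/525 nm, basal subtracted, expressed as fold change relative to zaprinast-only parasites.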
CCn1c(-c2nonc2N)nc2ccccc21 [SB-693162] was tested, and the “fold change in fluorescence relative to zaprinast alone” value was 0.7593 and 1.139. For Nc1ncnc2occ(-c3ccc(NC(=O)Nc4cc(C(F)(F)F)ccc4F)cc3)c12 [SB-707548-A], the “fold change in fluorescence relative to zaprinast alone” value was 1.011 and 0.2784.

Same assay, conditions: 100 uM zaprinast stimulation; 10 min pretreatment; mean of two replicates; 0.23 h
For CN1CCC(n2cnc(-c3ccc(F)cc3)c2-c2ccnc(Nc3ccccc3)n2)CC1 [SB-236687], the “fold change in fluorescence relative to zaprinast alone” value was 1.382. Fc1ccc(-c2ncn(C3CCNCC3)c2-c2ccnc(Nc3ccccc3)n2)cc1 [SB-238039-R] was tested, and the “fold change in fluorescence relative to zaprinast alone” value was 0.4937. NC(=O)c1ccc(Oc2nccc(-c3c(-c4ccc(F)cc4)ncn3C3CCNCC3)n2)cc1 [SB-242718] was tested, and the “fold change in fluorescence relative to zaprinast alone” value was 1.27. With CCc1ccc(Oc2nccc(-c3c(-c4ccc(F)cc4)ncn3C3CCNCC3)n2)cc1 [SB-242719] the “fold change in fluorescence relative to zaprinast alone” value was 1.455. In the case of Fc1ccc(-c2ncn(C3CCNCC3)c2-c2ccnc(Oc3ccc(-c4ccccc4)cc3)n2)cc1 [SB-245391], the “fold change in fluorescence relative to zaprinast alone” value was 1.215. For CCOc1nccc(-c2c(-c3ccc(F)cc3)ncn2C2CCNCC2)n1 [SB-249175], the “fold change in fluorescence relative to zaprinast alone” value was 0.6135. Fc1ccc(-c2ncn(C3CCNCC3)c2-c2ccnc(Oc3ccc4c(c3)OCO4)n2)cc1 [SB-250715] was tested, and the “fold change in fluorescence relative to zaprinast alone” value was 1.074. In the case of Fc1ccc(-c2ncn(C3CCNCC3)c2-c2ccnc(Oc3ccc(F)c(F)c3)n2)cc1 [SB-253228], the “fold change in fluorescence relative to zaprinast alone” value was 1.173. With NC(=O)Cc1ccccc1Oc1nccc(-c2c(-c3ccc(F)cc3)ncn2C2CCNCC2)n1 [SB-264865] the “fold change in fluorescence relative to zaprinast alone” value was 1.313. In the case of COc1nccc(-c2c(-c3ccc(F)cc3)ncn2CCCN2CCOCC2)n1 [SB-282852], the “fold change in fluorescence relative to zaprinast alone” value was 0.8251. For CN1C(=O)C(Nc2ccccc2)=C(c2ccccc2)C1=O [SB-300079], the “fold change in fluorescence relative to zaprinast alone” value was 0.899. With O=C1NC(=O)C(c2ccc(Cl)cc2)=C1Nc1cccc(Cl)c1 [SB-317651] the “fold change in fluorescence relative to zaprinast alone” value was 0.9895. With CSc1ccc(NC2=C(c3ccc(Cl)cc3)C(=O)NC2=O)cc1 [SB-317658] the “fold change in fluorescence relative to zaprinast alone” value was 0.971. CN(C1=C(c2ccccc2)C(=O)NC1=O)c1ccccc1 [SB-334860] was tested, and the “fold change in fluorescence relative to zaprinast alone” value was 0.8099. For COc1cccc(C2=C(N(C)c3ccccc3)C(=O)NC2=O)c1 [SB-334865], the “fold change in fluorescence relative to zaprinast alone” value was 0.953. With O=C1NC(=O)C(c2ccc(Cl)cc2)=C1Nc1ccc(O)cc1 [SB-340867] the “fold change in fluorescence relative to zaprinast alone” value was 1.192. For COc1cccc(C2=C(Nc3cccc(Cl)c3)C(=O)NC2=O)c1 [SB-341556], the “fold change in fluorescence relative to zaprinast alone” value was 1.087. For O=C1NC(=O)C(c2ccccc2Cl)=C1Nc1cccc(Cl)c1 [SB-342409], the “fold change in fluorescence relative to zaprinast alone” value was 0.95. For CSc1ccc(NC2=C(c3ccccc3Cl)C(=O)NC2=O)cc1 [SB-342411], the “fold change in fluorescence relative to zaprinast alone” value was 0.8828. For N#Cc1c(NC(=O)c2ccc(F)cc2)sc2c1CCCC2 [SB-347804], the “fold change in fluorescence relative to zaprinast alone” value was 1.012. COc1ccc(C2=C(N3CCc4ccccc43)C(=O)NC2=O)cc1 [SB-361058] was tested, and the “fold change in fluorescence relative to zaprinast alone” value was 1.153. With O=C1NC(=O)C(N2CCc3ccccc32)=C1c1ccccc1Cl [SB-373598] the “fold change in fluorescence relative to zaprinast alone” value was 1.071. For COc1ccccc1C1=C(Nc2cccc(O)c2)C(=O)NC1=O [SB-381891], the “fold change in fluorescence relative to zaprinast alone” value was 0.9532. With O=C1NC(=O)C(c2ccccc2Cl)=C1Nc1cccc(O)c1 [SB-390527] the “fold change in fluorescence relative to zaprinast alone” value was 1.108. With O=C1NC(=O)C(c2ccccc2)=C1Nc1cccc(O)c1 [SB-390534] the “fold change in fluorescence relative to zaprinast alone” value was 0.8317. With COc1ccc(C2=C(Nc3cccc(C(=O)O)c3)C(=O)NC2=O)cc1 [SB-390765] the “fold change in fluorescence relative to zaprinast alone” value was 0.6431. With COc1ccc(C2=C(Nc3cccc(O)c3)C(=O)NC2=O)cc1 [SB-390766] the “fold change in fluorescence relative to zaprinast alone” value was 1.133. COc1cccc(C2=C(Nc3cc(Cl)c(O)c(Cl)c3)C(=O)NC2=O)c1 [SB-390767] was tested, and the “fold change in fluorescence relative to zaprinast alone” value was 1.06. With COc1cccc(C2=C(Nc3ccc(Cl)c(C(=O)O)c3)C(=O)NC2=O)c1 [SB-390769] the “fold change in fluorescence relative to zaprinast alone” value was 1.176. For COc1cccc(C2=C(Nc3cccc(C(=O)O)c3)C(=O)NC2=O)c1 [SB-390770], the “fold change in fluorescence relative to zaprinast alone” value was 0.98. In the case of COc1cccc(C2=C(Nc3cccc(O)c3)C(=O)NC2=O)c1 [SB-390771], the “fold change in fluorescence relative to zaprinast alone” value was 0.8334. With c1ccc(-c2nc3n(c2-c2ccc4c(c2)OCO4)CCC3)nc1 [SB-400868-A] the “fold change in fluorescence relative to zaprinast alone” value was 0.8655. CN1C(=O)C(Nc2ccc(Cl)c(C(=O)O)c2)=C(c2ccc(Cl)cc2)C1=O [SB-404290] was tested, and the “fold change in fluorescence relative to zaprinast alone” value was 0.783. With CN1C(=O)C(Nc2cc(Cl)c(O)c(Cl)c2)=C(c2ccc(Cl)cc2)C1=O [SB-404321] the “fold change in fluorescence relative to zaprinast alone” value was 1.253. With O=C1NC(=O)C(N2CCc3ccccc32)=C1c1cccc(Cl)c1 [SB-408010] the “fold change in fluorescence relative to zaprinast alone” value was 0.7986. In the case of O=C1NC(=O)C(c2cccc(Cl)c2)=C1Nc1ccc(Cl)c(C(=O)O)c1 [SB-409513], the “fold change in fluorescence relative to zaprinast alone” value was 1.123. For O=C1NC(=O)C(c2cccc(Cl)c2)=C1Nc1ccc(O)c(Cl)c1 [SB-409514], the “fold change in fluorescence relative to zaprinast alone” value was 1.132. With Oc1ccc(-c2nc(-c3ccccc3)[nH]c2-c2ccncc2)cc1 [SB-428218-A] the “fold change in fluorescence relative to zaprinast alone” value was 1.23. With OCc1ccc(-c2nc(-c3ccc4c(c3)OCO4)c(-c3ccccn3)[nH]2)cc1 [SB-431533] the “fold change in fluorescence relative to zaprinast alone” value was 1.145. With NC(=O)c1ccc(-c2nc(-c3ccccn3)c(-c3ccc4c(c3)OCO4)[nH]2)cc1 [SB-431542-A] the “fold change in fluorescence relative to zaprinast alone” value was 1.08. With COc1ccc2cc(-c3c(-c4ccncc4)nc(-c4ccc([S+](C)[O-])cc4)n3C)ccc2c1 (stereo not drawn) [SB-437013] the “fold change in fluorescence relative to zaprinast alone” value was 1.038. With NCc1ccc(-c2nc(-c3ccc(Cl)c(O)c3)c(-c3ccncc3)[nH]2)cc1 [SB-476429-A] the “fold change in fluorescence relative to zaprinast alone” value was 1.226. Nc1[nH]nc2ncc(-c3ccccc3)cc12 [SB-517081] was tested, and the “fold change in fluorescence relative to zaprinast alone” value was 0.8708. For Nc1n[nH]c2nnc(-c3ccccc3)cc12 [SB-517389], the “fold change in fluorescence relative to zaprinast alone” value was 1.055. CC(=O)Nc1[nH]nc2ncc(-c3ccccc3)cc12 [SB-548492] was tested, and the “fold change in fluorescence relative to zaprinast alone” value was 1.137. For COc1ccc(-c2oc3ncnc(N)c3c2-c2ccc(OC)cc2)cc1 [SB-589132], the “fold change in fluorescence relative to zaprinast alone” value was 1.026. With CCN(CC)CCOc1ccc(Nc2ncc3cc(-c4c(Cl)cccc4Cl)c(=O)n(C)c3n2)cc1 [SB-601273] the “fold change in fluorescence relative to zaprinast alone” value was 0.7002. With CCCC(=O)Nc1[nH]nc2ncccc12 [SB-601436] the “fold change in fluorescence relative to zaprinast alone” value was 0.9225. COc1cccc(-c2nc(-c3ccccc3)[nH]c2-c2ccncc2)c1 [SB-610250] was tested, and the “fold change in fluorescence relative to zaprinast alone” value was 0.7579. Oc1cccc(-c2nc(-c3ccccc3)[nH]c2-c2ccncc2)c1 [SB-610251-B] was tested, and the “fold change in fluorescence relative to zaprinast alone” value was 1.022. ON=C1CCc2cc(-c3nc(C4CCNCC4)[nH]c3-c3ccncc3)ccc21 [SB-614067-R] was tested, and the “fold change in fluorescence relative to zaprinast alone” value was 1.048. With COc1ccc2cc(-c3c(-c4ccncc4)nc(-c4ccc(SC)cc4C)n3C)ccc2c1 [SB-625086-M] the “fold change in fluorescence relative to zaprinast alone” value was 0.941. With CN(C)CCCC(=O)Nc1n[nH]c2nnc(-c3ccccc3)cc12 [SB-627772-A] the “fold change in fluorescence relative to zaprinast alone” value was 1.028. COc1ccc2cc(-c3c(-c4ccncc4)nc(-c4ccc([S+](C)[O-])cc4C)n3C)ccc2c1 (stereo not drawn) [SB-630812] was tested, and the “fold change in fluorescence relative to zaprinast alone” value was 1.111. For COc1ccc2cc(-c3c(-c4ccncc4)nc(-c4ccc(S(C)(=O)=O)cc4C)n3C)ccc2c1 [SB-633825], the “fold change in fluorescence relative to zaprinast alone” value was 0.9532. In the case of CCCC(=O)Nc1[nH]nc2ncc(-c3cccc4ccccc34)cc12 [SB-642057], the “fold change in fluorescence relative to zaprinast alone” value was 0.9221. With Nc1n[nH]c2cnc(-c3ccccc3)cc12 [SB-642124-AAA] the “fold change in fluorescence relative to zaprinast alone” value was 1.394. For COc1ccc2cc(-c3nc(-c4ccccc4C(C)C)[nH]c3-c3ccncc3)ccc2c1 [SB-660566], the “fold change in fluorescence relative to zaprinast alone” value was 0.9646. In the case of CN1CCC(C(=O)Nc2n[nH]c3nnc(-c4ccccc4)cc23)CC1 [SB-678557-A], the “fold change in fluorescence relative to zaprinast alone” value was 1.083. CN(C)CCOc1ccc(-c2cc(-c3ccc(Cl)c(O)c3)c(-c3ccncc3)[nH]2)cc1 [SB-684387-B] was tested, and the “fold change in fluorescence relative to zaprinast alone” value was 0.6076. CCN1CCC(C(=O)Nc2n[nH]c3nnc(-c4cccc(F)c4F)cc23)CC1 [SB-686709-A] was tested, and the “fold change in fluorescence relative to zaprinast alone” value was 1.08. c1ccc(-c2ccnc3[nH]ccc23)cc1 [SB-693578] was tested, and the “fold change in fluorescence relative to zaprinast alone” value was 1.319. In the case of CCN1CCC(CC(=O)Nc2n[nH]c3nnc(-c4cccc(F)c4F)cc23)CC1 [SB-698596-AC], the “fold change in fluorescence relative to zaprinast alone” value was 1.047. For O=C(Nc1n[nH]c2nc(-c3ccccc3)c(Br)cc12)C1CC1 [SB-708998], the “fold change in fluorescence relative to zaprinast alone” value was 0.9523. O=C(Nc1n[nH]c2nc(-c3ccccc3)ccc12)C1CC1 [SB-708999] was tested, and the “fold change in fluorescence relative to zaprinast alone” value was 1.075. For O=C(Nc1n[nH]c2nc(-c3ccc(O)cc3)ccc12)C1CC1 [SB-710363], the “fold change in fluorescence relative to zaprinast alone” value was 1.137. With COc1cccc(-c2ccc3c(NC(=O)C4CC4)n[nH]c3n2)c1 [SB-710903] the “fold change in fluorescence relative to zaprinast alone” value was 1.151. For COc1ccc(-c2ccc3c(NC(=O)C4CC4)n[nH]c3n2)cc1 [SB-711237], the “fold change in fluorescence relative to zaprinast alone” value was 1.177. In the case of COc1ccccc1-c1ccc2c(NC(=O)C3CC3)n[nH]c2n1 [SB-711239], the “fold change in fluorescence relative to zaprinast alone” value was 1.107.

Same assay, conditions: 0.23 h, 10 µM
With O=C(Nc1n[nH]c2nnc(-c3cccnc3)cc12)C1CC1 [SB-675259-M] the “% of control remaining” value was 1.147.
